According to publication PMC3997336 (PLoS ONE, 2014):

Target: T1, MKK7 (Homo sapiens, UniProt O14733)
T1 construct: gene MAP2K7
Experiment: biochemical

T1 sequence (O14733 2-419): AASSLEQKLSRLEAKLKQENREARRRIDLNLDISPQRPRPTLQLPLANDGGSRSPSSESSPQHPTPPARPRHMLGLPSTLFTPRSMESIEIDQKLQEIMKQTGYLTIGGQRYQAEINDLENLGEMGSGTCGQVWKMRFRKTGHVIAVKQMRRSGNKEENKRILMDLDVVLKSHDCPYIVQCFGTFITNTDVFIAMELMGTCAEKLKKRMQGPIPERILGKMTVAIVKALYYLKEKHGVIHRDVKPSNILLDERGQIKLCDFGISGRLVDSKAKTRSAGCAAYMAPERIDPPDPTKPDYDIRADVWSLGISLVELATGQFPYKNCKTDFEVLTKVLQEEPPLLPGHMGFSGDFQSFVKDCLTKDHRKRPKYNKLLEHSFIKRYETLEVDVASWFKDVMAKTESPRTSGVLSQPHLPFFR

COc1ccc2c(Cc3ccc(O[Si](C)(C)C(C)(C)C)cc3)c3[n+](cc2c1OC)CCc1cc2c(cc1-3)OCO2 [HWY336]
IC50: 10 µM
